Source: ChEMBL document CHEMBL1909046, “DrugMatrix in vitro pharmacology data”
Where a SMILES comes first, the peptide text is derived from it. Bridges are numbered along the chain shown (N, C = ends). [ ]: non-standard residue; d: D form. The star is where a group is joined. Ileψ(thiazoline)Cys = CC[C@H](C)[C@H](N)C1=N[C@H](C(=O)*)CS1; dOrn = NCCC[C@@H](N)C(=O)O

Tests used:
[1] = target: Platelet-activating factor receptor (Homo sapiens, UniProt P25105); test: biochemical; format: tissue-based; details: platelet; note: in other assays of this panel Not Active means under 50% inhibition at 10 µM
Carbonic anhydrase 2 = Carbonic anhydrase 2 (Homo sapiens, UniProt P00918); test: DRUGMATRIX: Carbonic Anhydrase II enzyme inhibition (substrate: 4-Nitrophenyl acetate (4-NPA)); format: tissue-based, Erythrocyte; details: erythrocyte; Not Active = under 50% inhibition at 10 µM
Cannabinoid receptor 1 = Cannabinoid receptor 1 (Homo sapiens, UniProt P21554); format: cell membranes, Membrane; details: chem-1; note: in other assays of this panel Not Active means under 50% inhibition at 10 µM
B2 bradykinin receptor = target: T1, B2 bradykinin receptor (Homo sapiens, UniProt P30411); format: cell membranes, Membrane; details: chem-1; note: in other assays of this panel Not Active means under 50% inhibition at 10 µM
T1 sequence (P30411 whole entry): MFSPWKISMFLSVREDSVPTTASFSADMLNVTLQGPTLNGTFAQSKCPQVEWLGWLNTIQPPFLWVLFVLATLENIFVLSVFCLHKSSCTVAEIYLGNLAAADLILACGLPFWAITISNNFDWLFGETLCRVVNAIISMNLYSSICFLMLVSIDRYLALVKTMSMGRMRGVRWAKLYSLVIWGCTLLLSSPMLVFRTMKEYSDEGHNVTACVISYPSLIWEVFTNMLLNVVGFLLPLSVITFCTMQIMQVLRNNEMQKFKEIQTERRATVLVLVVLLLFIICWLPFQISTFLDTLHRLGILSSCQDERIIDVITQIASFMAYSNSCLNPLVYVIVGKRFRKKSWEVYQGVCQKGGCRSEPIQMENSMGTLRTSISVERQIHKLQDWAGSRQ

[2] = DRUGMATRIX: Tumor Necrosis Factor (TNF), Non-Selective radioligand binding (ligand: [125I] TNF-alpha); format: cell membranes, Membrane; details: u-937; Not Active = under 50% inhibition at 10 µM
[3] = target: T2, Nitric oxide synthase, inducible (Mus musculus, UniProt P29477); design: species or system Escherichia coli;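 note: inhibition of iNOS enzyme activity measured with L-arginine as substrate; in other assays of this panel Not Active means under 50% inhibition at 10 µM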
T2 sequence (P29477 whole entry): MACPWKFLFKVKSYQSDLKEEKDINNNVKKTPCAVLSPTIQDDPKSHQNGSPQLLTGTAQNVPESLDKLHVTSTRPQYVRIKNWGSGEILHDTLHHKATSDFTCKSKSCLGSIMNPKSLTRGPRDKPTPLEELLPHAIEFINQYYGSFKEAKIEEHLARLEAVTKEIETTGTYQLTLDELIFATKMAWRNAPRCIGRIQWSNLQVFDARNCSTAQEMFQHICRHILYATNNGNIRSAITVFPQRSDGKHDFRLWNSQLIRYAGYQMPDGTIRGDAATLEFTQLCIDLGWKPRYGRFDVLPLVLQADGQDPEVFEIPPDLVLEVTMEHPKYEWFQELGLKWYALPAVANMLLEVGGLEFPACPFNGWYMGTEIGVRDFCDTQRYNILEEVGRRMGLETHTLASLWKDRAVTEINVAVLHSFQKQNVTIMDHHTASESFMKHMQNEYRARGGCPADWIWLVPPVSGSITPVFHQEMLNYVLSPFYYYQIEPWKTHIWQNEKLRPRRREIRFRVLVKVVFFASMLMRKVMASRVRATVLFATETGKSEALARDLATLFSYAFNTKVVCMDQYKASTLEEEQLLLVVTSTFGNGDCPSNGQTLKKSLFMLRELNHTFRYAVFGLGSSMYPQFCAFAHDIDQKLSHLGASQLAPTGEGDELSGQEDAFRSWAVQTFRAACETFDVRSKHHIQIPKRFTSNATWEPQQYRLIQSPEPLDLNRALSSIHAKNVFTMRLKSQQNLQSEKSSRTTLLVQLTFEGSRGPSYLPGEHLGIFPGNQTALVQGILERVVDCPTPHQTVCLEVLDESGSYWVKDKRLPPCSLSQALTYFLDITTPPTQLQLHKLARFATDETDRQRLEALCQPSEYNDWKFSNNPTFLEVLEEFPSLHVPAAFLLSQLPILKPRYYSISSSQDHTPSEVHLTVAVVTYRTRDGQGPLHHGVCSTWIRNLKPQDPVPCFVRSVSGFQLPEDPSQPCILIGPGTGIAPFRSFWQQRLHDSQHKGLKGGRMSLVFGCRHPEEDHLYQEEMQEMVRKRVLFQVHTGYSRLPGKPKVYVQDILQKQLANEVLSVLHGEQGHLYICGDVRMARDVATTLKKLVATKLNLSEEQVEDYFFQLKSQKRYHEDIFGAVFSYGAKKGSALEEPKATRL

Melanocortin receptor 5 = Melanocortin receptor 5 (Homo sapiens, UniProt P33032); format: cell membranes, HEK293, Membrane; details: hek293; note: in other assays of this panel Not Active means under 50% inhibition at 10 µM
Cathepsin G = target: T3, Cathepsin G (Homo sapiens, UniProt P08311); format: tissue-based; details: neutrophil
T3 sequence (P08311 whole entry): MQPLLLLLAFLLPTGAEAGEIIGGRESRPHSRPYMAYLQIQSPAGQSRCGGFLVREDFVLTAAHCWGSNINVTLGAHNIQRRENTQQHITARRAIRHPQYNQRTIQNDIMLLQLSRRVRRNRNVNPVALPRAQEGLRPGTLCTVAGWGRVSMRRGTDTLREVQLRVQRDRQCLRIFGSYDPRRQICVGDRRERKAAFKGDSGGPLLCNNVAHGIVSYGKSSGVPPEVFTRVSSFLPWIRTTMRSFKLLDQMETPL

[4] = target: Sodium-dependent dopamine transporter (Homo sapiens, UniProt Q01959); test: DRUGMATRIX: Dopamine Transporter radioligand binding (ligand: [125I] RTI-55); format: cell membranes, CHO-K1, Membrane; details: Not Active = under 50% inhibition at 10 µM
Leukotriene C4 synthase = target: T4, Leukotriene C4 synthase (Cavia porcellus, UniProt A6XA80); test: biochemical; format: tissue-based, Lung
T4 sequence (A6XA80 whole entry): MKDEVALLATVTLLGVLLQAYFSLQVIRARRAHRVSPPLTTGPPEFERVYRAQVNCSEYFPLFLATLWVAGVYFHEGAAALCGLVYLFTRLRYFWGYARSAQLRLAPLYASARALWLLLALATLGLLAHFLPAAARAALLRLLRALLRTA

[5] = DRUGMATRIX: beta-Lactamase enzyme inhibition (substrate: Nitrocefin); design: species or system Bacillus cereus; details: Not Active = under 50% inhibition at 10 µM
[6] = DRUGMATRIX: Sigma2 radioligand binding (ligand: [3H] Ifenprodil); format: cell membranes, Rattus norvegicus, Wistar, Brain, Membrane; details: Not Active = under 50% inhibition at 10 µM

Sequence of Sodium-dependent dopamine transporter (Q01959 whole entry): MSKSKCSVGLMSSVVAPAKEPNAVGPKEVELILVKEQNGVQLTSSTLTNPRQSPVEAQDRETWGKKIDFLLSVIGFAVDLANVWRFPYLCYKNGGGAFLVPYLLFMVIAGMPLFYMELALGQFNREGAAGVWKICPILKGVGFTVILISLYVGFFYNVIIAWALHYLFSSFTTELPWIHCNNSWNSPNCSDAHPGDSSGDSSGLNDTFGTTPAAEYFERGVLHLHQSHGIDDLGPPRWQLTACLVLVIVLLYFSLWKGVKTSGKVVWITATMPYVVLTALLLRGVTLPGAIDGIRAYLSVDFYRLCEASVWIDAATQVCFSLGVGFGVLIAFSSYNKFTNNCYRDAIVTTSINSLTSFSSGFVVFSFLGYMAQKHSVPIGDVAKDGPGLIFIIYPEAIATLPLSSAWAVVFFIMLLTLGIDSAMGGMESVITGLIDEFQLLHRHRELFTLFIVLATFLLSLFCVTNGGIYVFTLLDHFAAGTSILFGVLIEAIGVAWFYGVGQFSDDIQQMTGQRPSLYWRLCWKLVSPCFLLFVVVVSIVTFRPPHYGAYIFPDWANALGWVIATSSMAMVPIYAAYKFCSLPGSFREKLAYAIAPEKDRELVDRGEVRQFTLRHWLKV
Sequence of Melanocortin receptor 5 (P33032 whole entry): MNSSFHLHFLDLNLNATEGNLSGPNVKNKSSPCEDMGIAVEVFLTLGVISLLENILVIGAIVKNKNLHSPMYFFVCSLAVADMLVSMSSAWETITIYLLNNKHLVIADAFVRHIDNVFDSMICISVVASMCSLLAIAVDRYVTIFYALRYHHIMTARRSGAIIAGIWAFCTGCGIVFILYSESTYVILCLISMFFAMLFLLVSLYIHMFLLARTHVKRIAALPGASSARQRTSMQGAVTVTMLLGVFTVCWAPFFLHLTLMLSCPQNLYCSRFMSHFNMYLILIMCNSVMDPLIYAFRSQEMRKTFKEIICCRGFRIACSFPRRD
Sequence of Cannabinoid receptor 1 (P21554 whole entry): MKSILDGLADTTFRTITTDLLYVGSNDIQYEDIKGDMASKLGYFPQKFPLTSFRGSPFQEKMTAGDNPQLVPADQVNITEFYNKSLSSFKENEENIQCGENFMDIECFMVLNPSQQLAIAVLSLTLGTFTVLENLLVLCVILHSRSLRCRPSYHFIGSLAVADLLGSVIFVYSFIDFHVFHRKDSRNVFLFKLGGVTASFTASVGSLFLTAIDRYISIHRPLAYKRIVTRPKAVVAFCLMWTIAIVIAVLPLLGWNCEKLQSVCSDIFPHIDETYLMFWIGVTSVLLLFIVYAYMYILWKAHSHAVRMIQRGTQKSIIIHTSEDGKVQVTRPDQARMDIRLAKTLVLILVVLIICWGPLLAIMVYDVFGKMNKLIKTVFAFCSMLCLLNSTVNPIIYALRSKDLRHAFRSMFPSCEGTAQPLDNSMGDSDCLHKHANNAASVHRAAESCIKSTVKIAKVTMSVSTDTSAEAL
Sequence of Platelet-activating factor receptor (P25105 whole entry): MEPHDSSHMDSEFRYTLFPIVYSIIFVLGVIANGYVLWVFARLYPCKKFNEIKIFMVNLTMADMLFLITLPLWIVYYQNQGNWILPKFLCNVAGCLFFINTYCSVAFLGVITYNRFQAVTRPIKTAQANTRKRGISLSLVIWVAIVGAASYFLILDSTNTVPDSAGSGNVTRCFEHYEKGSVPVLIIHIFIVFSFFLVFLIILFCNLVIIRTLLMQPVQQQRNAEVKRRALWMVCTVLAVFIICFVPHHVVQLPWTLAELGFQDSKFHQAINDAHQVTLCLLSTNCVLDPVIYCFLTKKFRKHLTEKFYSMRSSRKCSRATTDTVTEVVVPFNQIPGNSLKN

NS(=O)(=O)c1cc2c(cc1Cl)NCNS2(=O)=O [HYDROCHLOROTHIAZIDE]
IC50 [1]: Not Active
IC50 (Carbonic anhydrase 2): Not Active
IC50 (Cannabinoid receptor 1): Not Active
IC50 (B2 bradykinin receptor): Not Active
IC50 [2]: Not Active
Ki [2]: Not Active
IC50 [3]: Not Active
IC50 (Melanocortin receptor 5): Not Active
IC50 (Cathepsin G): Not Active
IC50 ([4]; cho-k1): Not Active
IC50 (Leukotriene C4 synthase): Not Active
IC50 [5]: Not Active
Ki [5]: Not Active
IC50 [6]: Not Active
Ki [6]: Not Active

CC[C@H](C)[C@H](N)C1=N[C@H](C(=O)N[C@@H](CC(C)C)C(=O)N[C@H](CCC(=O)O)C(=O)N[C@H](C(=O)N[C@H]2CCCCNC(=O)[C@H](CC(N)=O)NC(=O)[C@@H](CC(=O)O)NC(=O)[C@H](Cc3cnc[nH]3)NC(=O)[C@@H](Cc3ccccc3)NC(=O)[C@H]([C@@H](C)CC)NC(=O)[C@@H](CCCN)NC2=O)[C@@H](C)CC)CS1 [BACITRACIN] ({Ileψ(thiazoline)Cys}-L[dE]IK[dOrn]I[dF]H[dD]N; lactam 4-C)
IC50 [1]: Not Active
IC50 (Carbonic anhydrase 2): Not Active
IC50 (Cannabinoid receptor 1): Not Active
IC50 (B2 bradykinin receptor): Not Active
IC50 [2]: Not Active
Ki [2]: Not Active
IC50 [3]: Not Active
IC50 (Melanocortin receptor 5): Not Active
IC50 (Cathepsin G): Not Active
IC50 ([4]; cho-k1): Not Active
IC50 (Leukotriene C4 synthase): Not Active
IC50 [5]: Not Active
Ki [5]: Not Active
IC50 [6]: Not Active
Ki [6]: Not Active

GOLD SODIUM THIOMALATE
IC50 [1]: Not Active
Ki [1]: Not Active
IC50 (Carbonic anhydrase 2): Not Active
Ki (Carbonic anhydrase 2): Not Active
IC50 (Cannabinoid receptor 1): Not Active
Ki (Cannabinoid receptor 1): Not Active
IC50 (B2 bradykinin receptor): Not Active
Ki (B2 bradykinin receptor): Not Active
IC50 [2]: Not Active
Ki [2]: Not Active
IC50 [3]: Not Active
Ki [3]: Not Active
IC50 (Melanocortin receptor 5): Not Active
Ki (Melanocortin receptor 5): Not Active
IC50 (Cathepsin G): Not Active
Ki (Cathepsin G): Not Active
IC50 ([4]; cho-k1): Not Active
Ki ([4]; cho-k1): Not Active
IC50 (Leukotriene C4 synthase): Not Active
Ki (Leukotriene C4 synthase): Not Active
IC50 [5]: Not Active
Ki [5]: Not Active
IC50 [6]: Not Active
Ki [6]: Not Active

CISPLATIN
IC50 [1]: Not Active
Ki [1]: Not Active
IC50 (Carbonic anhydrase 2): Not Active
Ki (Carbonic anhydrase 2): Not Active
IC50 (Cannabinoid receptor 1): Not Active
Ki (Cannabinoid receptor 1): Not Active
IC50 (B2 bradykinin receptor): Not Active
Ki (B2 bradykinin receptor): Not Active
IC50 [2]: Not Active
Ki [2]: Not Active
IC50 [3]: Not Active
Ki [3]: Not Active
IC50 (Melanocortin receptor 5; read-out: IC50): 6.43 µM
Ki (Melanocortin receptor 5; read-out: Ki): 6.04 µM
IC50 (Cathepsin G): Not Active
Ki (Cathepsin G): Not Active
IC50 ([4]; cho-k1): Not Active
Ki ([4]; cho-k1): Not Active
IC50 (Leukotriene C4 synthase): Not Active
Ki (Leukotriene C4 synthase): Not Active
IC50 [5]: Not Active
Ki [5]: Not Active
IC50 [6]: Not Active
Ki [6]: Not Active

CNCCC=C1c2ccccc2CCc2ccccc21 [NORTRIPTYLINE]
IC50 [1]: Not Active
IC50 (Carbonic anhydrase 2): Not Active
IC50 (Cannabinoid receptor 1): Not Active
IC50 (B2 bradykinin receptor): Not Active
IC50 [2]: Not Active
Ki [2]: Not Active
IC50 [3]: Not Active
IC50 (Melanocortin receptor 5): Not Active
IC50 (Cathepsin G): Not Active
IC50 ([4]; read-out: IC50): 1.68 µM
Ki ([4]; read-out: Ki): 1.33 µM
IC50 (Leukotriene C4 synthase): Not Active
IC50 [5]: Not Active
Ki [5]: Not Active
IC50 [6]: Not Active
Ki [6]: Not Active

COC(=O)[C@H](c1ccccc1Cl)N1CCc2sccc2C1 [CLOPIDOGREL]
IC50 [1]: Not Active
IC50 (Carbonic anhydrase 2): Not Active
IC50 (Cannabinoid receptor 1): Not Active
IC50 (B2 bradykinin receptor): Not Active
IC50 [2]: Not Active
Ki [2]: Not Active
IC50 [3]: Not Active
IC50 (Melanocortin receptor 5): Not Active
IC50 (Cathepsin G): Not Active
IC50 ([4]; cho-k1): Not Active
IC50 (Leukotriene C4 synthase): Not Active
IC50 [5]: Not Active
Ki [5]: Not Active
IC50 [6]: Not Active
Ki [6]: Not Active

CN1C[C@H](C(=O)N[C@]2(C)O[C@@]3(O)[C@@H]4CCCN4C(=O)[C@H](Cc4ccccc4)N3C2=O)C=C2c3cccc4[nH]cc(c34)C[C@H]21 [ERGOTAMINE]
IC50 [1]: Not Active
IC50 (Carbonic anhydrase 2): Not Active
IC50 (Cannabinoid receptor 1): Not Active
IC50 (B2 bradykinin receptor): Not Active
IC50 [2]: Not Active
Ki [2]: Not Active
IC50 [3]: Not Active
IC50 (Melanocortin receptor 5): Not Active
IC50 (Cathepsin G): Not Active
IC50 ([4]; cho-k1): Not Active
IC50 (Leukotriene C4 synthase): Not Active
IC50 [5]: Not Active
Ki [5]: Not Active
IC50 [6]: Not Active
Ki [6]: Not Active

c1ccc2c(c1)cc1ccc3cccc4ccc2c1c34
IC50 [1]: Not Active
IC50 (Carbonic anhydrase 2): Not Active
IC50 (Cannabinoid receptor 1): Not Active
IC50 (B2 bradykinin receptor): Not Active
IC50 [2]: Not Active
Ki [2]: Not Active
IC50 [3]: Not Active
IC50 (Melanocortin receptor 5): Not Active
IC50 (Cathepsin G): Not Active
IC50 ([4]; cho-k1): Not Active
IC50 (Leukotriene C4 synthase): Not Active
IC50 ([5]; read-out: IC50): 20.7 µM
IC50 [6]: Not Active
Ki [6]: Not Active

CCOC(=O)c1ccc(N)cc1 [BENZOCAINE]
IC50 [1]: Not Active
IC50 (Carbonic anhydrase 2): Not Active
IC50 (Cannabinoid receptor 1): Not Active
IC50 (B2 bradykinin receptor): Not Active
IC50 [2]: Not Active
Ki [2]: Not Active
IC50 [3]: Not Active
IC50 (Melanocortin receptor 5): Not Active
IC50 (Cathepsin G): Not Active
IC50 ([4]; cho-k1): Not Active
IC50 (Leukotriene C4 synthase): Not Active
IC50 [5]: Not Active
Ki [5]: Not Active
IC50 [6]: Not Active
Ki [6]: Not Active
